The values that follow come from BindingDB's records for doi:10.1021/acsmedchemlett.8b00158 (Utah State University, 2018).

The nature of this assay: Inhibition of recombinant human Cx26 expressed in Escherichia coli LB2003 assessed as reduction in cell growth measured after 18 hrs.
On to `Cc1ccc(COC[C@H]2O[C@@H](O[C@@H]3[C@@H](O)[C@H](O[C@H]4O[C@H](CN)[C@@H](O)[C@H](O)[C@H]4O)[C@@H](N)C[C@H]3N)[C@H](O)[C@@H](N)[C@@H]2OCc2ccc(C)cc2)cc1`, for which the IC50 is 4.3 µM. Take `COc1ccc(COC[C@H]2O[C@@H](O[C@@H]3[C@@H](O)[C@H](O[C@H]4O[C@H](CN)[C@@H](O)[C@H](O)[C@H]4O)[C@@H](N)C[C@H]3N)[C@H](O)[C@@H](N)[C@@H]2OCc2ccc(OC)cc2)cc1`: the IC50 came out at 13 µM. The value for `CCCCCCCCCOC[C@H]1O[C@@H](O[C@@H]2[C@@H](O)[C@H](O[C@H]3O[C@H](CN)[C@@H](O)[C@H](O)[C@H]3O)[C@@H](N)C[C@H]2N)[C@H](O)[C@@H](N)[C@@H]1OCCCCCCCCC` was 18.8 µM. The value for `CO[C@@H]1[C@@H](O[C@@H]2O[C@H](COCc3ccccc3)[C@@H](OCc3ccccc3)[C@H](N)[C@H]2OC)[C@H](N)C[C@H](N)[C@H]1O[C@H]1O[C@H](CN)[C@@H](OC)[C@H](OC)[C@H]1OC` was 8.4 µM; that for `NC[C@H]1O[C@H](O[C@H]2[C@H](O)[C@@H](O[C@@H]3O[C@H](COCc4ccc(Cl)cc4)[C@@H](OCc4ccc(Cl)cc4)[C@H](N)[C@H]3O)[C@H](N)C[C@@H]2N)[C@H](O)[C@@H](O)[C@@H]1O` was 2.5 µM. Take `CCCCCCO[C@H]1[C@H](N)[C@@H](O)[C@H](O[C@@H]2[C@@H](O)[C@H](O[C@H]3O[C@H](CN)[C@@H](O)[C@H](O)[C@H]3O)[C@@H](N)C[C@H]2N)O[C@@H]1CO`: the IC50 worked out at 13.5 µM.

Consider `NC[C@H]1O[C@H](O[C@H]2[C@H](O)[C@@H](O[C@@H]3O[C@H](COCc4cccc5ccccc45)[C@@H](OCc4cccc5ccccc45)[C@H](N)[C@H]3O)[C@H](N)C[C@@H]2N)[C@H](O)[C@@H](O)[C@@H]1O`, for which the IC50 came out at 6.6 µM. Consider `CCCCCCOC[C@H]1O[C@@H](O[C@@H]2[C@@H](O)[C@H](O[C@H]3O[C@H](CN)[C@@H](O)[C@H](O)[C@H]3O)[C@@H](N)C[C@H]2N)[C@H](O)[C@@H](N)[C@@H]1OCCCCCC`, for which the IC50 is 6.2 µM. As for `NC[C@H]1O[C@H](O[C@H]2[C@H](O)[C@@H](O[C@@H]3O[C@H](COCc4cccc(-c5ccccc5)c4)[C@@H](OCc4cccc(-c5ccccc5)c4)[C@H](N)[C@H]3O)[C@H](N)C[C@@H]2N)[C@H](O)[C@@H](O)[C@@H]1O`, the IC50 amounted to 6.2 µM. The value for `NC[C@H]1O[C@H](O[C@H]2[C@H](O)[C@@H](O[C@@H]3O[C@H](COCc4ccc(F)cc4)[C@@H](OCc4ccc(F)cc4)[C@H](N)[C@H]3O)[C@H](N)C[C@@H]2N)[C@H](O)[C@@H](O)[C@@H]1O` was 8.1 µM.

Regarding `CCCCCCCCOC[C@H]1O[C@@H](O[C@@H]2[C@@H](O)[C@H](O[C@H]3O[C@H](CN)[C@@H](O)[C@H](O)[C@H]3O)[C@@H](N)C[C@H]2N)[C@H](O)[C@@H](N)[C@@H]1OCCCCCCCC`, the IC50 came out at 13.6 µM. Consider `NC[C@H]1O[C@H](O[C@H]2[C@H](O)[C@@H](O[C@@H]3O[C@H](COCc4ccc5ccccc5c4)[C@@H](OCc4ccc5ccccc5c4)[C@H](N)[C@H]3O)[C@H](N)C[C@@H]2N)[C@H](O)[C@@H](O)[C@@H]1O`, for which the IC50 was determined as 4.9 µM. Consider `CCCCOC[C@H]1O[C@@H](O[C@@H]2[C@@H](O)[C@H](O[C@H]3O[C@H](CN)[C@@H](O)[C@H](O)[C@H]3O)[C@@H](N)C[C@H]2N)[C@H](O)[C@@H](N)[C@@H]1OCCCC`, for which the IC50 was determined as 19 µM.
